From paper PMC3428502 (Brain research, 2012)
“Also recorded” adds a separate entry of the source.

Columns and labels:
PC6-3 cells [1] = assay: MTT assay of mitochondrial function; assay type: cell-based; conditions: for change of mitochondrial function (MTT), in words: 5, 10, 25, 50 μM; for mitochondrial dysfunction: 50 μM
[2] = molecular target: T1, tyrosine hydroxylase (TH) (Rattus norvegicus, UniProt P04177); assay: TH activity in whole dopaminergic PC6-3 cells; assay type: cell-based; conditions: for TH inhibition in PC6-3 cells: 2 h; for inhibition at 20 µM: read-out: TH inhibition in PC6-3 cells
BSA [3] = molecular target: T2, BSA (Bos taurus, UniProt P02769); assay: Relative protein reactivity with BSA; conditions: 100 μM, BSA 1 mg/mL, 4 h, 37°C, compared to DOPAL
BSA [4] = molecular target: T2, BSA; conditions: compared to DOPAL; ref Rees et al., 2009; cited from earlier work
PC6-3 cells [5] = assay: Intracellular concentration in PC6-3 cells by HPLC; assay type: in vitro ADME, rat
[6] = molecular target: T1, tyrosine hydroxylase (TH); conditions: 1.0 μM; modified from previously published results; ref Mexas et al., 2011; cited from earlier work
PC6-3 cells [7] = assay: Flow cytometry with DHE for superoxide anion; assay type: cell-based, rat; conditions: 10 μM, 1 h incubation, vs control cells
PC6-3 cells [8] = assay: Flow cytometry with DCF-DA for hydrogen peroxide; assay type: cell-based, rat; conditions: 5 and 10 μM, 1 h, vs control cells
[9] = molecular target: T1, tyrosine hydroxylase (TH); assay: TH activity in PC6-3 cell lysate; assay type: biochemical; conditions: read-out: inhibition of L-DOPA production in cell lysate
[10] = 20 μM placed exogenously on PC6-3 cells

T2 sequence (P02769 25-607): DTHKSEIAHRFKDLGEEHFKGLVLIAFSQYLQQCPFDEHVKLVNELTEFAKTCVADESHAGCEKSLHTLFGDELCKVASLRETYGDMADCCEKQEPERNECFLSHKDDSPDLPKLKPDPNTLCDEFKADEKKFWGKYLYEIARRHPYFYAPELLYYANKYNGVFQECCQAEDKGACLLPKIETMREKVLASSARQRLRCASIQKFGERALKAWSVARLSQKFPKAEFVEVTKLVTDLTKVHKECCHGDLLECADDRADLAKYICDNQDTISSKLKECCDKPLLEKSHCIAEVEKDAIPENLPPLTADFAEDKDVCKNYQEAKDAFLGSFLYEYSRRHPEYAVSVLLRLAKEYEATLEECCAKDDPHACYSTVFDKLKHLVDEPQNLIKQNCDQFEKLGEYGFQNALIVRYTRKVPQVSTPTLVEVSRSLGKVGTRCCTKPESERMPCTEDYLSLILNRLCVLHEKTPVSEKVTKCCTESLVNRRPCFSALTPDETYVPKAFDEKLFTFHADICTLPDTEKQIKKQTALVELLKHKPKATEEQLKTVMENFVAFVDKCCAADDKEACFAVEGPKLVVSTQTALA
T1 sequence (P04177 whole entry): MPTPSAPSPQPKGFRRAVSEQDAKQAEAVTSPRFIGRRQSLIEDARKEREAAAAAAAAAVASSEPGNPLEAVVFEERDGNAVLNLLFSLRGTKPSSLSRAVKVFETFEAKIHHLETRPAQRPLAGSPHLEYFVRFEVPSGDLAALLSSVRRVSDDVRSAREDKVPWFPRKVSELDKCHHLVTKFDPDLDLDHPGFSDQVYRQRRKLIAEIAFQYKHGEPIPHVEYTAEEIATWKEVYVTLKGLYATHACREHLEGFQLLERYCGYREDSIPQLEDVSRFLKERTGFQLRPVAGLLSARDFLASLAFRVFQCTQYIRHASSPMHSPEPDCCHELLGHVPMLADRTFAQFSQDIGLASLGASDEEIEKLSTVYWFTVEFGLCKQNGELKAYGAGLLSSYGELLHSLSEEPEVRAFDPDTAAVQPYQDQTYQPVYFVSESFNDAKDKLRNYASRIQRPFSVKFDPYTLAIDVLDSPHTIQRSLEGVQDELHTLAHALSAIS

Row | SMILES | change of mitochondrial function (MTT), in words (PC6-3 cells [1]; 2 h, vs control cells) | times less protein reactivity than DOPAL (BSA [4]) [times] | inhibition at 20 µM [2] [%] | intracellular concentration (PC6-3 cells [5]; [10]) | mitochondrial dysfunction (PC6-3 cells [1]; 2 h, vs control cells) | inhibition at 20 µM [9] [%] | other results
1 | N#CCc1ccc(O)c(O)c1 [DHPAN, 3,4-Dihydroxyphenylacetonitrile] | no significant loss of mitochondrial viability; also recorded: no changes to mitochondrial function; also recorded: no significant toxicity |  |  |  |  |  | TH inhibition in PC6-3 cells ([2]; 20 μM final concentration): no significant TH inhibition; Relative protein reactivity (NBT staining of BSA) (BSA [3]): no significant staining by NBT
2 | COc1ccc(CC=O)cc1OC [DMPAL, 3,4-Dimethoxyphenylacetaldehyde] | no significant loss of mitochondrial viability; also recorded: no changes to mitochondrial function; also recorded: no significant toxicity | 5 | ~40 | ~ 9 μM |  |  | 
3 | O=CCc1ccc(O)c(O)c1 [DOPAL, 3,4-dihydroxyphenylacetaldehyde, reference compound] |  |  |  |  |  |  | TH inhibition in cell lysate [6]: ~95%; TH inhibition in PC6-3 cells ([2]; 5 μM placed exogenously, intracellular 4–5 μM): ~ 60%; decrease of DA concentration in PC6-3 cells ([2]; DOPAL-treated cells vs control cells, data not shown): ~ 40%; superoxide anion production (DHE) (PC6-3 cells [7]): significantly different from control cells; hydrogen peroxide production (DCF-DA) (PC6-3 cells [8]): significantly less hydrogen peroxide than controls cells; intracellular concentration (PC6-3 cells [5]; rat, 5 μM, pH 7.4): 4 to 5 µM
4 | O=CCC=O [MDA, Malondialdehyde, reference compound] |  |  |  |  |  |  | effect on TH activity ([2]; 5 μM, used to inhibit ALDH and AR, data not shown): does not inhibit or alter TH activity
5 | COc1cc(CC=O)ccc1O [MOPAL, 3-methoxy-4-hydroxyphenylacetaldehyde] | some concentration-dependent dysfunction | 5 | ~50 |  | ~ 25% | ~50 | intracellular concentration (PC6-3 cells [5]; rat, 20 μM, pH 7.4): 9 to 12 µM
6 | O=CCc1ccccc1 [PAL, phenylacetaldehyde] | some concentration-dependent dysfunction | 10 | ~50 | 9 to 12 µM | ~ 25% | ~50 | loss of mitochondrial viability (PC6-3 cells [1]; 10 μM, 2 h, vs control cells): ~ 15%; loss of mitochondrial viability (PC6-3 cells [1]; 25 μM, vs controls): ~ 15%
